Source: PMC6008768, “Physiologically Based Pharmacokinetic Modelling with Dynamic PET Data to Study the In Vivo Effects of Transporter Inhibition on Hepatobiliary Clearance in Mice” (Contrast Media & Molecular Imaging, 2018)
Several values for one entry are separate records, joined by “and”; a condition that tells them apart may be missing. Equal values may be shown once. Read-outs that look alike come from different tables or passages of the source.

What was measured:
[1] = Plasma kinetics: biexponential fit of image-derived CPlasma(t) from dynamic PET; type: in vivo, mice
Procedure: (§1) For PET/CT acquisition, mice were anaesthetized with 3 to 5% isoflurane in air/oxygen (1 : 1), at a respiratory rate of ~60 per min as described elsewhere. Cyclosporine (50 mg/kg), to inhibit cyclosporine-sensitive transporters, was injected into a tail vein (i.v.), 30 to 50 min before tracer injection while the respective tracer was synthesized. The injected cyclosporine solution was a dilution with water for injection (1 : 1) of Sandimmun® (Novartis Pharmaceuticals, Basel, Switzerland; 50 mg/ml cyclosporine in 26.1% ethanol/65% PEG-35 castor oil). Vehicle (13% ethanol, 2 ml/kg) was injected as a control as indicated. Immediately after radiosynthesis quality control, the tracer was injected i.v. at a dose between 3 and 14 MBq (<20 nmol/kg) in 100 to 200 μL saline containing 5% ethanol. Injections lasted ~10 s. The mouse was transferred to a SuperArgus PET/CT scanner (Sedecal, Madrid, Spain, formerly Vista eXplore) with an axial field of view of 4.8 cm and a spatial resolution of 1.6–1.7 mm (full width at half maximum; [23]). Body temperature and respiratory rate were controlled as previously described. The PET scan was started in List mode 60 s after tracer injection. After 60 min scan duration, computed tomography (CT) data were recorded for anatomical orientation.
The blood C(t) was generated with PMOD from the PET images as follows. A cropped cube of 10 × 10 × 10 mm^3 including the image data of the heart was divided into 12 segments with differing kinetics, using the PSEG module of PMOD. C(t) of the segment covering the left heart ventricle according to the PET (first time frame)/CT images was used as an estimation of the blood C(t) (CBlood(t)). CBlood(t) was divided by (1 − hematocrit) to get CPlasma(t) and fitted to a biexponential infusion function as shown in (1) CPlasmat=A0/T×V1×λ1×V1/Vz−λ1/λ1λz−λ1×1−e^−λ1×tt≤T+Tt>T×e^−λ1×t−Tt>T+λ1×V1/Vz−λz/λzλ1−λz×1−e^−λz×tt≤T+Tt>T×e^−λz×t−Tt>T, where A(0) is the radioactivity dose, T is the duration of the injection (10 s infusion), V1 is the volume of the central compartment (initial volume of distribution of the tracer after injection), Vz is the volume of distribution during the terminal phase, and λ1 and λz are the respective rate constants of the biexponential function and t the time. The term [t(t ≤ T) + T(t > T)] equals t if t ≤ T but T if t > T. The term (t − T)(t > T) equals t − T if t > T, otherwise zero. The hematocrit was assumed 0.44 [25, 26].
Total CL was calculated as the sum of CLH and CLR and compared to the CL estimated from the CPlasma(t) biexponential fits (see (1)), as CL = λz × Vz. The extraction ratio EH for liver was estimated as ratio between CLH and QP,H, with QP,H from Davies and Morris.

[2] = cited from earlier work
[3] = PET images: radioactivity distribution; type: in vivo, mice; conditions: for radioactivity distribution in PET images: control conditions; for change of radioactivity distribution in PET images: cyclosporine 50 mg/kg i.v. before tracer, compared to scans without cyclosporine
Procedure: as §1
The PET data were reconstructed into 10 or 12 time frames by 2D Fourier rebinning/ordered-subsets expectation maximization (FORE/OSEM), 2 iterations, and 16 subsets, correcting for singles and randoms but not attenuation. Images were generated with the software PMOD v3.8 (PMOD, Zurich, Switzerland). All radioactivities were decay-corrected to the time point of tracer injection.

[4] = design: method as in PMID 24834996; conditions: 30 min after administration; cited from earlier work
[5] = test system: hCD80-positive xenografts; design: method as in PMID 24834996; conditions: previous work; cited from earlier work
[6] = test system: human costimulatory molecule CD80 (hCD80); design: method as in Taddio et al., in preparation; conditions: ref Taddio et al., in preparation; cited from earlier work
[7] = design: method as in PMID 24834996; conditions: cited from earlier work
[8] = In vivo PBPK compartment modelling of dynamic whole-body PET data; design: species or system mice; conditions: for average CLH when kBG was fitted / calculated transintestinal clearance: kBG fitted
Source text: C(t) of liver, kidneys, and peripheral tissue and A(t) of gallbladder and intestines were derived from manually drawn volumes of interest according to the PET/CT images, using the VOI functions of PMOD. Regions of interest are shown for a representative scan in Supplementary Figure 1. C(t) data were transformed to A(t) by multiplication with the reported average volume of the respective organ or tissue. These were 0.065 cm^3 per g BW for liver and 0.0164 cm^3 per g BW for kidneys. The volume of the “peripheral tissue” (VTissue) with C(t) determined from the left shoulder was estimated during the fitting procedure. It was 0.74 ± 0.08 cm^3 per g BW for [^11C]MT107 control scans and 0.79 ± 0.10 cm^3/g for [^11C]MT107 scans after cyclosporine treatment, without significant difference (p = 0.47).
A(t) of the individual regions of interest were fitted with custom-written MATLAB scripts (MathWorks, Natick, MA) according to the compartment model shown in Figure 2, using the ode45 function to solve the differential equation system. Tracer input was simulated as a constant input of duration T (A(0)/T). Fitting was performed with the solver fmincon and the function MultiStart with 128 random sets of bounded initial parameters. Calculations were performed by parallel computing on 40 cores of the Euler cluster of ETH Zurich (https://scicomp.ethz.ch/). The initial parameters were best guesses from supervised simulations. Initial lower bounds were 0 for the rate constants of mass transfer (k). For k from plasma to liver and kidneys, the initial upper bounds were set according to the reported values for blood flow, corrected for (1 − hematocrit) to get the plasma flow (QP) divided by the plasma volume (VPlasma = vBlood × (1 − hematocrit) × BW). The QP for liver (QP,H) was 1.0 ml/min and for kidneys (QP,R) 0.73 ml/min.
Figure 2 Model for the pharmacokinetic analysis. A(0) is the dose, and T is the infusion duration (10 s). Initial A(t = 0) for all compartments (indicated by black boxes) were zero. The parameters k are mass transfer rate constants with the unit 1/time. The indices denote the source and target compartments, respectively (e.g., kBH1, k for the mass transfer from blood plasma to hepatic compartment “Liver 1”). A(t) of peripheral tissue was best fit with two sets of rate constants for reversible transfer. The sum of the two plasma-to-tissue rate constants is kBT. Several models were evaluated and the results were visually inspected. […] For [^11C]MT107 scans, kBG (grey arrow) was set to 0. Tissue blood fractions (vBlood multiplied with the organ or tissue volume and CBlood(t)) were added to the compartments where applicable. B, blood plasma; G, gallbladder plus intestine combined; H, liver; R, kidneys; T, peripheral tissue; U, urine.
During the fitting procedure, the sum of weighted squared residuals of all A(t) was minimized. For weighting, the residuals of the first two data points of plasma, liver, and kidney were multiplied with 5, to force the fits through these initial data points. After several rounds, the best estimates with the lowest sum of squared residuals were used per tracer to define the final upper and lower bounds as 0.5-fold the minimal respective fit parameter and 2-fold the highest respective fit parameter per tracer. […] Under these refined conditions, one calculation (one scan) with 128 random sets of initial values required 10–120 min.
CLH was calculated according to (2) CLH=kBH1×kH1H2/kH1B+kH1H2×VPlasma, where the rate constants k are defined in the model in Figure 2. Note that at steady state this equals CLH calculated from kH2G.
The term 1/(1 + kR1R2/kR2R1) corrects for the mass ratio between R1 and the combined R1 and R2.
Total CL was calculated as the sum of CLH and CLR and compared to the CL estimated from the CPlasma(t) biexponential fits (see (1)), as CL = λz × Vz. […]

[9] = after cyclosporine 50 mg/kg i.v.
[10] = after cyclosporine 50 mg/kg i.v., 30 to 50 min before tracer
[11] = control, tracer i.v., 60 min PET scan
[12] = control, for [11C]AM7 CLH includes kBG × VPlasma, for [11C]MT107 kBG = 0
[13] = cyclosporine 50 mg/kg i.v. versus control

| Vz, volume of distribution during the terminal phase [1, 9] | λ1 rate constant of biexponential function [1, 9] | λz rate constant of biexponential function [1, 9] | V1, volume of the central compartment [1, 10] | Vz, volume of distribution during the terminal phase ([1]; control) | λ1 rate constant of biexponential function ([1]; control) | λz rate constant of biexponential function ([1]; control) | V1, volume of the central compartment [1, 11] | CLR, renal clearance ([8]; control) | DTissue, distribution coefficient between tissue and plasma at equilibrium ([8]; control) | CLH, hepatobiliary clearance [8, 12] | Structure (SMILES) | radioactivity distribution in PET images [3] | change of radioactivity distribution in PET images [3] | affinity to hCD80 [6] | other results |
| --- | --- | --- | --- | --- | --- | --- | --- | --- | --- | --- | --- | --- | --- | --- | --- |
| 8.0 mL | 0.204 min⁻¹ | 0.0206 min⁻¹ | 4.2 mL | 10.3 mL and 9.4 mL | 0.196 min⁻¹ and 0.295 min⁻¹ | 0.0234 min⁻¹ and 0.0270 min⁻¹ | 3.0 mL and 2.3 mL | 161 µL/min and 179 µL/min | 0.11 and 0.12 | 103 µL/min and 120 µL/min | [11CH3]N1CCC(NC(=O)c2ccc(-n3[nH]c4c(nnc5c(F)cccc54)c3=O)cc2)CC1 [[^11C]AM7] | accumulated in the liver, gallbladder, intestines, and the urinary bladder | increased in kidneys and peripheral tissue and reduced in liver, gallbladder, and intestines | low nanomolar range | logD (pH 7.4) [2]: 0.1; radiometabolites in blood plasma [4]: No radiometabolites were detected; accumulation in hCD80-positive xenografts [5]: negligible; unbound fraction in plasma (fu) [7]: 0.02 |
| 3.33 ± 0.80 mL | 0.139 ± 0.021 min⁻¹ | 0.0140 ± 0.0034^∗∗b 1/min | 1.38 ± 0.11 mL | 2.66 ± 0.51 mL | 0.121 ± 0.011 min⁻¹ | 0.0210 ± 0.0011 min⁻¹ | 1.49 ± 0.19 mL | 11.9 ± 5.3 µL/min | 0.10 ± 0.02 | 35.2 ± 10.9 µL/min | [11CH3]N1CCC(NC(=O)c2ccc(-n3[nH]c4c(c(-c5cccc(C(F)(F)F)c5)nc5c(F)cccc54)c3=O)cc2)CC1 [[^11C]MT107] | higher tissue radioactivity compared to [^11C]AM7 but still high abdominal radioactivity accumulation | increased radioactivity uptake in the kidneys and peripheral tissue and reduction in the liver | low nanomolar range | increase of Vz after cyclosporine administration ([1]; not significant (p = 0.21)): 1.25 fold; logD (pH 7.4) ([2]; ref Taddio et al., in preparation): 2.0; kGH1, rate constant of reabsorption from intestines into liver compartment H1 ([8]; absence of cyclosporine): 0.0077 ± 0.0033 min⁻¹; CLR, renal clearance [8, 9]: 19.9 ± 5.1 µL/min; DTissue, distribution coefficient between tissue and plasma at equilibrium [8, 9]: 0.14 ± 0.03; CLH, hepatobiliary clearance ([8]; after cyclosporine 50 mg/kg i.v., kBG = 0): 17.1 ± 5.6 µl/min and 17.1 ± 5.6^∗b µl/min; average CLH when kBG was fitted ([8]; after cyclosporine administration): 9.3 ± 4.2 µL/min; increase of CLR after cyclosporine administration ([8]; average, not significant (p = 0.069)): 1.7 fold; EH, extraction ratio for liver (CLH/QP,H) ([8]; control): 0.035 ± 0.011; total CL from modelling lower than from biexponential fit of CPlasma(t) ([8]; control group): 16%; VTissue, volume of the peripheral tissue estimated during fitting ([8]; control scans): 0.74 ± 0.08 cm^3 per g BW; average CLH when kBG was fitted ([8]; control): 25.4 ± 6 µL/min; calculated transintestinal clearance ([8]; control): 10.5 ± 11.3 µL/min; CLH after cyclosporine relative to value in the absence of cyclosporine [8, 13]: 48%; EH after cyclosporine relative to value in the absence of cyclosporine [8, 13]: 48%; total CL from modelling lower than from biexponential fit of CPlasma(t) ([8]; cyclosporine group): 17%; calculated transintestinal clearance ([8]; cyclosporine group): 7.8 ± 4.1 µL/min; increase of average DTissue after cyclosporine administration (factor) ([8]; not significant (p = 0.078)): 1.34; kGH1, rate constant of reabsorption from intestines into liver compartment H1 ([8]; presence of cyclosporine): 0.0080 ± 0.0038 min⁻¹; VTissue, volume of the peripheral tissue estimated during fitting ([8]; scans after cyclosporine treatment): 0.79 ± 0.10 cm^3/g |
